# Test results as given in paper PMC5407577, “Functional and genetic evidence that nucleoside transport is highly conserved in Leishmania species: Implications for pyrimidine-based chemotherapy” (International Journal for Parasitology: Drugs and Drug …, 2017).
# Like-named read-outs stand apart in the source and are kept apart here.
# Experiments:
# T. b. brucei strain B48 [1] = assay: microbe, parasite or virus in culture; type: cell-based; conditions: Trypanosoma brucei, read-out: inhibition of 0.5 μM [3H]-uridine uptake, 250 μM inhibitor
# Description: (§1) Using the standard uptake technique as described for T. brucei and Leishmania species ([Wallace et al., 2002], [Al-Salabi and De Koning, 2005], [Gudin et al., 2006]), the dose- or time-dependent uptake of radiolabeled permeants was investigated.
# Briefly, cells in the mid-to-late logarithmic stage of growth were harvested by centrifugation for 10 min at 1500×g. The cells were washed twice with transport assay buffer (AB: 33 mM HEPES, 98 mM NaCl, 4.6 mM KCl, 0.55 mM CaCl2, 0.07 mM MgSO4, 5.8 mM NaH2PO4, 0.3 mM MgCl2, 23 mM NaHCO3, 14 mM glucose, pH 7.3), resuspended at a density of 10^8 cells ml^−1 in AB, and left for 20–30 min at room temperature to recover from centrifugation stress. One hundred microliters of cell suspension was incubated at ambient temperature for a predetermined time with 100 μl radiolabeled test compound, in the presence or absence of unlabeled substrate or other competitive inhibitors. The incubation was terminated by the addition of ice-cold stop solution (AB containing saturating levels, usually 10 mM, of unlabeled permeant) and centrifugation through oil for 1 min at 13,000 × g. […] Radioactivity was determined by liquid scintillation counting in a Beckman LS6000 TA scintillation counter. Saturation data, inhibition data, and time courses were plotted to equations for linear or non-linear regression (hyperbolic or sigmoid curves), as appropriate. […]
# Lmaj5F2′dURes = type: cell-based, Leishmania major; conditions: 0.25 μM [3H]-uridine, 0.5 μM [3H]-uracil
# Description: as §1
# (§2) Briefly, cells in the mid-to-late logarithmic stage of growth were harvested by centrifugation for 10 min at 1500×g. The cells were washed twice with transport assay buffer (AB: 33 mM HEPES, 98 mM NaCl, 4.6 mM KCl, 0.55 mM CaCl2, 0.07 mM MgSO4, 5.8 mM NaH2PO4, 0.3 mM MgCl2, 23 mM NaHCO3, 14 mM glucose, pH 7.3), resuspended at a density of 10^8 cells ml^−1 in AB, and left for 20–30 min at room temperature to recover from centrifugation stress. One hundred microliters of cell suspension was incubated at ambient temperature for a predetermined time with 100 μl radiolabeled test compound, in the presence or absence of unlabeled substrate or other competitive inhibitors. The incubation was terminated by the addition of ice-cold stop solution (AB containing saturating levels, usually 10 mM, of unlabeled permeant) and centrifugation through oil for 1 min at 13,000 × g. […] Radioactivity was determined by liquid scintillation counting in a Beckman LS6000 TA scintillation counter. Saturation data, inhibition data, and time courses were plotted to equations for linear or non-linear regression (hyperbolic or sigmoid curves), as appropriate. All experiments were performed in triplicate and on at least three independent occasions.
# Lmaj5FURes = type: cell-based, Leishmania major; conditions: 0.5 μM radiolabel
# Description: as §1, §2
# LmexNT1 [2] = assay: [3H]-adenosine uptake by L. mexicana promastigotes; type: cell-based, Leishmania mexicana; conditions: for Ki: inhibition of 0.05 μM [3H]-adenosine uptake, read-out: Ki
# LmajU1 = test system: LmajU1; parameters: method as in Papageorgiou et al., 2005; conditions: ref Papageorgiou et al., 2005; cited from earlier work
# LmajNT1 [3] = assay: [3H]-thymidine uptake by L. major promastigotes; type: cell-based, Leishmania major; conditions: inhibition of 0.25 μM [3H]-thymidine uptake (total LmajNT1.1 + LmajNT1.2), 5 min
# LmajNT1 [4] = assay: [3H]-uridine uptake by L. major promastigotes, low-affinity component; type: cell-based, Leishmania major; conditions: for Ki: inhibition of 0.25 μM [3H]-uridine uptake
# Description: as §1, §2
# LmexNT1 [5] = type: cell-based, Leishmania mexicana; conditions: for Ki: inhibition of 0.25 μM [3H]-uridine uptake in the presence of 1 mM uracil
# How it was run: (§3)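 Mid-to-late log-phase parasites were washed and held at 10^8 cells ml^−1 in HEPES/bicarbonate buffer with glucose, pH 7.3, then incubated at ambient temperature with radiolabelled permeant, with or without unlabelled substrate or inhibitors. Uptake was stopped with ice-cold excess unlabelled permeant and oil centrifugation, then counted by scintillation; saturation, inhibition and time-course data fitted by regression, in triplicate.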
# [6] = test system: L. mexicana promastigotes; type: cell-based, Leishmania mexicana; conditions: for inhibition of 0.25 μM [3H]-uridine transport: maximal inhibition, uracil up to 2.5 mM (Fig. 3B)
# How it was run: as §3
# Lmex5F2′dURes = type: cell-based, Leishmania mexicana; conditions: 0.5 μM [3H]-uridine, 0.1 μM [3H]-adenosine, 0.25 μM [3H]-uracil
# How it was run: as §3
# LmexUU1 = type: cell-based, Leishmania mexicana
# How it was run: as §3
# Lmex5FURes = type: cell-based, Leishmania mexicana; conditions: 0.5 μM radiolabel
# How it was run: as §3
# LmajUUT1 = assay: [3H]-uridine uptake by L. major promastigotes, high-affinity uracil-sensitive component; type: cell-based, Leishmania major; conditions: for Ki: inhibition of 0.25 μM [3H]-uridine uptake; for Km: double reciprocal plot, n = 3, read-out: Km (1)
# Description: as §1, §2
# L. major promastigotes = assay: total [3H]-uridine uptake by L. major promastigotes; type: cell-based, Leishmania major
# Description: as §1, §2
# LmexNT1 [7] = type: cell-based, Leishmania mexicana; conditions: inhibition of 1 μM [3H]-thymidine uptake, 20 s
# LdNT1.1 = test system: LdNT1.1; parameters: method as in Vasudevan et al., 1998; Landfear, 2001; conditions: ref Vasudevan et al., 1998; Landfear, 2001; cited from earlier work
# [8] = biological target: P1 adenosine/inosine transporter; parameters: method as in De Koning and Jarvis, 1999; conditions: ref De Koning and Jarvis, 1999; cited from earlier work
# LdNT1.2 = test system: LdNT1.2; parameters: method as in Vasudevan et al., 1998; Landfear, 2001; conditions: ref Vasudevan et al., 1998; Landfear, 2001; cited from earlier work
# LmajNT2 = assay: [3H]-inosine transport by T. brucei B48 cells expressing LmajNT2; type: cell-based, Leishmania major; conditions: 250 μM adenosine
# Description: Plasmid construction and transfection was performed according to [Munday et al. (2013)]. The nucleoside transporter genes were isolated from L. mexicana and L. major. […] The primers used in this study (Table S2) were designed to flank the gene of interest, one complementary to the sequence upstream of the 5′ end and the other complementary to the sequence downstream of the 3′ end. All of the nucleoside transporters genes were PCR-amplified from genomic DNA of each strain using the high-fidelity proof-reading polymerase Phusion (New England Biolabs) and cloned into the pGEMTeasy (Promega) vector prior to Sanger sequencing (Source BioScience, Glasgow, UK). […] After confirming the identity of each gene, the nucleoside transporter genes (LmajNT1A, LmajNT1B, LmajNT2, LmexNT1A, LmexNT1B, and LmexNT2) were ligated into the expression vector pHD1336 ([Biebinger et al., 1997]) and then were linearized with NotI digestion. All genes were verified by Sanger sequencing, prior to transfection into T. b. brucei clone B48. B48 parasites (1 × 10^7 cells) were washed into Human T Cell buffer for transfection using the desired cassette with an Amaxa Nucleofector using program X-001. Cells were transferred into pre-warmed HMI-9 medium and allowed to recover for 8–16 h at 37 °C and 5% CO2. Following recovery, transfectants were grown and cloned in selective medium containing 5 μg ml^−1 blasticidin S using limiting dilution.
# as §1
# Briefly, cells in the mid-to-late logarithmic stage of growth were harvested by centrifugation for 10 min at 1500×g. […] Radioactivity was determined by liquid scintillation counting in a Beckman LS6000 TA scintillation counter. […]
# T. b. brucei strain B48 [9] = assay: [3H]-inosine uptake in non-transfected T. brucei B48; type: cell-based, Trypanosoma brucei brucei; conditions: 250 μM adenosine or 1 mM unlabeled inosine (Fig. 7B)
# Description: as §1, §2
# [10] = [3H]-uridine, high affinity component
smiles,measurement,setting,value
O=c1cc[nH]c(=O)[nH]1 [uracil],inhibition at 250 µM,T. b. brucei strain B48 [1],75.7%
same,"uptake of radiolabel, lower than in WT control cells",Lmaj5F2′dURes,80%
same,"uptake of radiolabel, lower than in WT control cells",Lmaj5F2′dURes; listed as [^3H]-uracil,81.4%
same,"uptake of radiolabel, lower than in WT control cells",Lmaj5FURes,95.7%
same,Ki,LmexNT1 [2],> 2500 µM
same,Km,LmajU1,0.32 µM
same,Ki,LmajNT1 [3],> 1000 µM
same,Ki,LmajNT1 [4],> 1000 µM
same,Ki,LmexNT1 [5],> 2500 µM
same,inhibition of 0.25 μM [3H]-uridine transport,[6],48%
same,Ki,"[6]; read-out: Ki, uracil-sensitive uridine transporter, partial inhibition of 0.25 μM [3H]-uridine uptake, n = 5",25.7 ± 6.6 µM
same,"uptake of radiolabel, reduced compared to WT control cells",Lmex5F2′dURes,unaffected
same,"uptake of radiolabel, reduced compared to WT control cells",Lmex5F2′dURes; listed as [^3H]-uracil,not significantly different
same,rate of transport,"LmexUU1; 0.25 μM [3H]-uracil, linear to at least 10 min",0.0020 ± 0.0002 pmol(10^7 cells)^−1s^−1
same,rate of transport,"LmexUU1; 0.5 μM [3H]-uracil, linear over 10 min (Fig. 4B legend)",0.0020 ± 0.0002 pmol(10^7 cells)^−1s^−1
same,rate of transport,"LmexUU1; 1 μM [3H]-uracil, linear over 120 s",0.0030 ± 0.0002 pmol(10^7 cells)^−1s^−1
same,inhibition of 0.5 μM [3H]-uracil transport,LmexUU1; 1 mM unlabeled uracil,95%
same,Vmax,LmexUU1; [3H]-uracil,0.088 ± 0.010 pmol(10^7 cells)^−1s^−1
same,Km,"LmexUU1; [3H]-uracil, 4 min, n = 3",29.7 ± 4.4 µM
same,"uptake of radiolabel, lower than in WT control cells",Lmex5FURes,90.2%
same,Ki,LmajUUT1,2.65 ± 0.6 µM
same,inhibition at 0.25 µM,"L. major promastigotes; Leishmania major, 3 h, read-out: partial (maximal) inhibition of 0.25 μM [3H]-uridine transport",77.2 ± 2.7%
same,Ki,LmexNT1 [7],> 2500 µM
O=c1ccn([C@@H]2O[C@H](CO)[C@@H](O)[C@H]2O)c(=O)[nH]1 [uridine],Km,LdNT1.1,5 µM
same,Ki,LmexNT1 [2],16.8 ± 1.3 µM
same,Vmax (2),"LmajNT1 [4]; [3H]-uridine, low affinity component",0.15 ± 0.04 pmol(10^7 cells)^−1s^−1
same,Km,"LmajNT1 [4]; [3H]-uridine, low affinity component, n = 3, read-out: Km (2)",33.5 ± 7.3 µM
same,Vmax,"LmexNT1 [5]; [3H]-uridine, in the presence of 1 mM uracil",0.74 ± 0.13 pmol(10^7 cells)^−1s^−1
same,Km,"LmexNT1 [5]; [3H]-uridine, measured in the presence of 1 mM uracil",13.3 ± 2.4 µM
same,Km,"[6]; read-out: Km for the uridine flux, total flux, no uracil, n = 5",7.15 ± 0.9 µM
same,Ki,"LmexUU1; inhibition of [3H]-uracil uptake, 4 min",2 ± 0.5 µM
same,maximal inhibition of [3H]-uracil transport,LmexUU1; n = 3,approximately 85%
same,Vmax (1),LmajUUT1; [10],0.036 ± 0.004 pmol(10^7 cells)^−1s^−1
same,Km,"LmajUUT1; [3H]-uridine, high affinity component, listed as [^3H]-uridine",3.12 ± 0.61 µM
same,Km,LmajUUT1; [10],3.1 ± 0.6 µM
same,Ki,[8],830 µM
same,Km,LdNT1.2,40 µM
same,Km,"L. major promastigotes; n = 3, read-out: apparent Km (single Michaelis-Menten saturation plot)",7.3 ± 1.3 µM
same,Ki,LmexNT1 [7],9.1 ± 0.6 µM
Nc1ncnc2c1ncn2[C@@H]1O[C@H](CO)[C@@H](O)[C@H]1O [adenosine],Km,LdNT1.1,~0.2 µM
same,inhibition of 50 nM [3H]-inosine transport,LmajNT2,57%
same,rate of transport,"LmexNT1 [2]; 0.1 μM [3H]-adenosine, linear over at least 30 s",0.21 ± 0.01 pmol(10^7 cells)^−1s^−1
same,Km,LmexNT1 [2]; [3H]-adenosine,0.81 ± 0.16 µM
same,Vmax,LmexNT1 [2]; [3H]-adenosine,1.11 ± 0.19 pmol(10^7 cells)^−1s^−1
same,inhibition of 50 nM [3H]-inosine transport,T. b. brucei strain B48 [9],fully inhibited
same,Ki,LmajNT1 [3],1.77 ± 0.21 µM
same,Ki,LmajNT1 [4],1.93 ± 0.49 µM
same,Ki,LmexNT1 [5],0.39 ± 0.09 µM
same,inhibition of 0.25 μM [3H]-uridine transport,[6],~100%
same,"uptake of radiolabel, reduced compared to WT control cells",Lmex5F2′dURes,89%
same,Ki,LmajUUT1,1.93 ± 0.49 µM
same,Km,LdNT1.2,~5 µM
same,Ki,L. major promastigotes; complete inhibition of [3H]-uridine transport (both components),1.93 ± 0.49 µM
same,Ki,LmexNT1 [7],0.25 ± 0.04 µM
